Measured values taken from patent US20030236218A1, “Aryl phosphate derivatives of d4T with selective activity against adenovirus and HIV” (priority 2002, published 2003).
Several values for one entry are separate records, joined by “and”; a condition that tells them apart may be missing. Equal entries are not always repeated. Where two headings read alike, the source gives them in different places.

Assays:
[1] = Octanol/water partition coefficient, shake flask method; assay type: physicochemical; conditions: 4 hours at room temperature, read-out: Oct/Water (log P)
Experimental: HPLC purification was achieved using a reverse-phase Lichrospher column (250×4 mm, Hewlett-Packard, RP-18, Cat. #79925) and an isocratic flow (1 ml/minute) consisting of water (70%) and acetonitrile (30%). Melting points were determined using a Melt John's apparatus and are uncorrected. Column chromatography was performed using silica gel obtained from Baker Company. The octanol/water partition coefficient was determined by the shake flask method. The phosphoramidate analogs were added to 2 ml of water and 2 ml of octanol in a glass vial. The mixture was shaken for 4 hours at room temperature. The two phases were carefully separated and filtered through a Millipore filter and analyzed by HPLC. The partition coefficient was calculated using the ratio of the area under the curve for octanol and water, respectively.

[2] = tested on: enterovirus strain, ECHO 30, strain Bastianni; assay: Enterovirus plaque formation assay in SF cells; assay type: cell-based
Source text: (§1) Virus stocks. The HIV-1 strain used in this study was HTLV-IIIB (Uckun et al., 1998 Antimicro. Agents and Chemother., 42:383-388). The non-HIV viruses included in the present study were the gancyclovir-sensitive cytomegalovirus (CMV) strain AD169 (ATCC VR-538); acyclovir-sensitive herpes simplex virus (HSV) Type I strain HF (ATCC VR-260); acyclovir-sensitive HSV Type II strain G (ATCC VR-734); adenovirus strain Type 5, strain adenoid 75 (ATCC VR-5); enterovirus strain, ECHO 30, strain Bastianni (ATCC VR-322); and respiratory syncytial virus (RSV), strain Long (ATCC VR-26).
(§2) Plaque formation assays. Plaque assays were used to examine the activity of the compounds against non-HIV viruses. The skin fibroblast cell line SF (ATCC CRL-2097) was used as a target for AD169, Adenovirus Type 5. […] cell line (ATCC CCL-81) was used as a target for HSV HF and G. The HEP-2 cell line (ATCC CCL-23) was used as a target for the RSV strain Long. These cell lines were cultured at 1×10^5 cells/well in 24-well (all but ECHO 30-infected SF) or 6-well (ECHO 30-infected SF) tissue culture plates with 0.9% methylcellulose or 0.4% SeaPlaque agarose semisolid support. […] Percent inhibition of plaque formation was calculated by comparing the plaque numbers from the test substance-treated infected cells with the plaque numbers from untreated infected cells (i.e., virus controls). The IC50 values were determined using the Statview statistics program (SAS Institute, Inc., Cary, N.C.).
(§3) Statistical analysis. […] An IC50 value was calculated from each set of triplicate wells using nonlinear regression modeling of the exponential form of the linearized equation (Statview, SAS Institute, Inc., Cary, N.C.). […]
(§4) The skin fibroblast cell line SF (ATCC CRL-2097) was used as a target for AD169, Adenovirus Type 5, and ECHO 30; the VERO cell line (ATCC CCL-81) was used as a target for HF and G; and the HEP-2 cell line (ATCC CCL-23) was used as target for the RSV strain Long. Results are expressed as the average IC50 values in μM. […]

skin fibroblasts = assay: Cytotoxicity in skin fibroblasts (plaque assay); assay type: cell-based; conditions: ADV plaque formation assay
Experimental: as §2, with “support. Minimum Essential Medium (MEM) with Earle's salts (Gibco), L-glutamine, non-essential amino acids, 2% heat-inactivated fetal bovine serum, 1% penicillin/streptomycin, and 0.05% gentamicin served as the culture medium. The incubation times were 3 days for HF, G, ECHO 30, and Long; and 7 days for AD169 and Adenovirus Type 5.” for “support.”

[3] = tested on: adenovirus strain Type 5, strain adenoid 75; assay: Adenovirus plaque formation assay in skin fibroblast cell line SF; assay type: cell-based, human adenovirus
Source text: as §1
Plaque formation assays. Plaque assays were used to examine the activity of the compounds against non-HIV viruses. The skin fibroblast cell line SF (ATCC CRL-2097) was used as a target for AD169, Adenovirus Type 5. […] cell line (ATCC CCL-81) was used as a target for HSV HF and G. The HEP-2 cell line (ATCC CCL-23) was used as a target for the RSV strain Long. These cell lines were cultured at 1×10^5 cells/well in 24-well (all but ECHO 30-infected SF) or 6-well (ECHO 30-infected SF) tissue culture plates with 0.9% methylcellulose or 0.4% SeaPlaque agarose semisolid support. Minimum Essential Medium (MEM) with Earle's salts (Gibco), L-glutamine, non-essential amino acids, 2% heat-inactivated fetal bovine serum, 1% penicillin/streptomycin, and 0.05% gentamicin served as the culture medium. The incubation times were 3 days for HF, G, ECHO 30, and Long; and 7 days for AD169 and Adenovirus Type 5. Plaque counting was performed with a 20X dissecting microscope for AD169, Type 5, ECHO 30, and RSV Long, and with a light box for HF and G. The fixative agent was crystal violet for all viruses, except for the CMV strain AD169 for which methylene blue was used. Percent inhibition of plaque formation was calculated by comparing the plaque numbers from the test substance-treated infected cells with the plaque numbers from untreated infected cells (i.e., virus controls). The IC50 values were determined using the Statview statistics program (SAS Institute, Inc., Cary, N.C.).
Statistical analysis. Each drug was tested at 6-7 different concentrations ranging from 0.0001 μM to 100 μM. Each assay was set up in triplicate wells and repeated 1-3 times. An IC50 value was calculated from each set of triplicate wells using nonlinear regression modeling of the exponential form of the linearized equation (Statview, SAS Institute, Inc., Cary, N.C.). […] The IC50 values obtained were correlated to the log transformed hydrolysis rate constants by fitting a linear model (JMP Software, SAS Institute Inc., Cary, N.C.). P-values less than 0.05 were deemed significant.
The skin fibroblast cell line SF (ATCC CRL-2097) was used as a target for AD169, Adenovirus Type 5, and ECHO 30; the VERO cell line (ATCC CCL-81) was used as a target for HF and G; and the HEP-2 cell line (ATCC CCL-23) was used as target for the RSV strain Long. Results are expressed as the average IC50 values in μM. Stavudine (STV) was included as a control.

[4] = tested on: cytomegalovirus (CMV) strain AD169; assay: CMV plaque formation assay in SF cells; assay type: cell-based; conditions: Human betaherpesvirus 5
Source text: as §1, §2, §3, §4

[5] = tested on: herpes simplex virus (HSV) Type I strain HF; assay: HSV-1 plaque formation assay in VERO cells; assay type: cell-based; conditions: Human alphaherpesvirus 1, HSV-1, Strain HF
Source text: as §1, §2, §3, §4

[6] = Hydrolysis rate in alkali conditions; assay type: physicochemical
Experimental: Statistical analysis. Each drug was tested at 6-7 different concentrations ranging from 0.0001 μM to 100 μM. Each assay was set up in triplicate wells and repeated 1-3 times. An IC50 value was calculated from each set of triplicate wells using nonlinear regression modeling of the exponential form of the linearized equation (Statview, SAS Institute, Inc., Cary, N.C.). Hydrolysis rates were determined by fitting single exponential decay equations to the disappearance of the compound in alkali conditions (all R^2 values greater than 0.85). The IC50 values obtained were correlated to the log transformed hydrolysis rate constants by fitting a linear model (JMP Software, SAS Institute Inc., Cary, N.C.). P-values less than 0.05 were deemed significant.

[7] = tested on: respiratory syncytial virus (RSV), strain Long; assay: RSV plaque formation assay in HEP-2 cells; assay type: cell-based; conditions: human respiratory syncytial virus, HEp-2
Source text: as §1, §2, §3, §4

HIV-1 strain HTLV-IIIB = assay: In vitro anti-HIV-1 activity, p24 antigen assay in PBMNC; assay type: cell-based; conditions: Human immunodeficiency virus 1, HIV-1, HTLV-IIIB, day 7
Source text: as §1
In vitro assays of anti-HIV-1 activity. Normal human peripheral blood mononuclear cells (PBMNC) from HIV-negative donors were cultured 72 hours in RPMI 1640 supplemented with 20% (v/v) heat-inactivated fetal bovine serum (FBS), 3% interleukin-2, 2 mM L-glutamine, 25 mM HEPES, 2 g/L NaHCO3, 50 Tg/mL gentamicin, and 4 Tg/mL phytohemagglutinin prior to exposure to HIV-1 at a multiplicity of infection (MOI) of 0.1 during a 1 hour adsorption period at 37° C. in a humidified 5% CO2 atmosphere. Subsequently, cells were cultured in 96-well microtiter plates (100 TL, 2×10^6 cells/mL) in the presence of various concentrations of compounds 113 or 609. Aliquots of culture supernatants were removed from the wells on the seventh day after infection for p24 antigen assays, as previously described. […] Percent viral inhibition was calculated by comparing the p24 values from untreated infected cells (i.e., virus controls).
Statistical analysis. […] An IC50 value was calculated from each set of triplicate wells using nonlinear regression modeling of the exponential form of the linearized equation (Statview, SAS Institute, Inc., Cary, N.C.). Hydrolysis rates were determined by fitting single exponential decay equations to the disappearance of the compound in alkali conditions (all R^2 values greater than 0.85). […]

Solubility = assay type: physicochemical; conditions: read-out: Solubility
HSV Type II strain G = assay: HSV-2 plaque formation assay in VERO cells; assay type: cell-based, herpes simplex virus Type II; conditions: Human alphaherpesvirus 2, HSV-2, Strain G
Source text: as §1, §2, §3, §4

Stability in plasma = assay type: in vitro ADME; conditions: spiked plasma; 250 μM compound 113, 100 μM Ala-d4T-MP (followed for 1 day)
Experimental: Plasma samples (200 μL) were mixed 1:4 with acetone (800 μL) and vortexed for at least 30 seconds. Following centrifugation, the supernatant was transferred into a clean tube and was dried under nitrogen. A 50 μL solution of 50% methanol in 200 mM HCl was used to reconstitute the extraction residue, and 40 μL was injected into the HPLC.
(§5) The whole blood samples were placed in a 37° C. water bath, while plasma samples were stored at −20° C. At a predetermined time, an aliquot (100 μl) of spiked whole blood or plasma was extracted by adding 400 μl of acetone to induce precipitation of proteins, as described above.

[8] = Pharmacokinetic studies in mice, intravenous administration; assay type: in vivo, Balb/c mice; conditions: for AUC / CL / Cmax / Vss / t1/2 / Tmax: plasma analyte = label
Experimental: Female Balb/c mice (6-8 weeks old) from Taconic (Germantown, N.Y.) were housed in a controlled environment (12-hours of light/12-hours of dark, 22±1° C., 60±10% relative humidity), which is fully accredited by the USDA. All rodents were housed in microisolator cages (Lab Products, Inc., NJ) containing autoclaved bedding. The mice were allowed free access to autoclaved pellet food and tap water throughout the study.
Blood samples (˜500 μL) were obtained from the ocular venous plexus by retro-orbital venipuncture at 0, 2, 5, 10, 15, 30, 45, 60, 120, 240 and 360 minutes after intravenous injection.
(§6) All collected blood samples were heparinized and centrifuged at 7000×g for 5 minutes to separate the plasma fraction from the whole blood. The plasma samples were then processed immediately using the extraction procedure described above.
(§7) Pharmacokinetic modeling and parameter calculations were carried out using the WinNonlin Professional Version 3.0 (Pharsight, Inc., Mountain, Calif.) pharmacokinetics software (Chen et al., Pharm. Res., 16, 1003 (1999); Chen et al., Pharm. Res., 16, 117 (1999); Chen et al., J. Clin. Pharmacol., 39, 1248 (1999); Uckun et al., Clin. Cancer Res., 5, 2954 (1999); and Uckun et al., J. Pharmacol. Exp. Ther., 291, 1301 (1999)). An appropriate model was chosen on the basis of the lowest sum of weighted squared residuals, the lowest Schwartz Criterion (SC), the lowest Akaike's Information Criterion (AIC) value, the lowest standard errors of the fitted parameters, and the dispersion of the residuals. The elimination half-life was estimated by linear regression analysis of the terminal phase of the plasma concentration-time profile. The area under the concentration-time curve (AUC) was calculated according to the linear trapezoidal rule between the first sampling time (0 hours) and the last sampling time plus C/k, where C is the concentration of the last sampling and k is the elimination rate constant. The systemic clearance (CL) was determined by dividing the dose by the AUC. The metabolic clearance of the parent drug, the formation clearance of the metabolite, the clearance elimination of the metabolite, and the distribution clearance of the metabolite were estimated by simultaneous fitting of the concentration of parent drug and metabolites as a function of time curve to pharmacokinetic models (see FIGS. 7A & 8A) specified as a system of differential equations (Gabrielsson & Weiner, Phamacokinetic/Phamacodynamic Data Analysis: Concepts and Applications, Swedish Pharmaceutical Press (1997)).

Stability in whole blood = assay type: in vitro ADME; conditions: spiked whole blood 37° C.; 250 μM compound 113, 100 μM Ala-d4T-MP (followed for 1 day)
Experimental: as §5

[9] = Pharmacokinetic studies in mice, oral administration; assay type: in vivo, Balb/c mice; conditions: for AUC / Cmax / Tmax / t1/2: plasma analyte = label, after oral 100 mg/kg compound 113
Experimental: Female Balb/c mice (6-8 weeks old) from Taconic (Germantown, N.Y.) were housed in a controlled environment (12-hours of light/12-hours of dark, 22±1° C., 60±10% relative humidity), which is fully accredited by the USDA. All rodents were housed in microisolator cages (Lab Products, Inc., NJ) containing autoclaved bedding. The mice were allowed free access to autoclaved pellet food and tap water throughout the study. All animal care procedures conformed to the Guide for the Care and Use of Laboratory Animals (National Research Council, National Academy Press, Washington D.C. 1996).
Sampling time points were 0, 2, 5, 10, 15, 30, 45, 60, 120, 240 and 360 minutes after the gavage.
as §6, §7

[10] = Stability in simulated intestinal fluid; assay type: in vitro ADME; conditions: 100 μM, 37° C.
Experimental: The spiked fluids were then placed in a 37° C. water bath. At a predetermined time, 100 μI aliquots of the spiked gastric or intestinal fluid were extracted by adding 400 μl of acetone as discussed above.

[11] = after i.v. Ala-d4T-MP, model fit, C.V. of modeling in parentheses
[12] = after i.v. compound 113, model fit, C.V. of modeling in parentheses
[13] = after i.v. 75 mg/kg Ala-d4T-MP, estimate from composite curve of pooled data
[14] = after i.v. 75 mg/kg Ala-d4T-MP, mean ± S.E.M
[15] = after i.v. 100 mg/kg compound 113, estimate from composite curve of pooled data
[16] = after i.v. 100 mg/kg compound 113, mean ± S.E.M
[17] = estimate from composite curve of pooled data

## COC(=O)C(C)NP(=O)(OCC1C=CC(n2cc(C)c(=O)[nH]c2=O)O1)Oc1ccc(Cl)cc1 (stereo not drawn) [Compound 609, 5′-[4-Chlorophenylmethoxyalaninyl phosphate]-2′, 3′-didehydro-3′-deoxy thymidine]
[1]
  logP at 4 h: 0.64
[2]
  IC50: > 100000 nM
Skin fibroblasts
  cytotoxicity (in words): without cytotoxicity
[3]; Adenovirus Type 5, 7 days, ± s.e., read-out: IC50, ADV-induced plaque formation
  IC50: 26.7 nM and 27 nM
[3]; read-out: IC50, ADV-induced plaque formation, Adenovirus Type 5, 7 days, ± s.e.
  IC50: 2.7 ± 3 nM
[4]
  IC50: > 100000 nM
[5]
  IC50: > 100000 nM
[6]
  Hydrolysis Rate: 0.0216 min⁻¹
[7]
  IC50: > 100000 nM
HIV-1 strain HTLV-IIIB
  IC50: 1 nM
Solubility
  Solubility: 1400 µg/mL
HSV Type II strain G
  IC50: > 100000 nM

## Cc1cn([C@H]2C=C[C@@H](COP(=O)(O)NC(C)C(=O)O)O2)c(=O)[nH]c1=O (stereo partly drawn) [Ala-d4T-MP, alaninyl-d4T-monophosphate]
Stability in plasma
  stability in plasma (in words): stable
[8]; after i.v. Ala-d4T-MP
  share of CLm1 in the total systemic clearance: 99%
[8]; [11]
  CLm1 (metabolic clearance of Ala-d4T-MP / formation clearance of d4T): 15.6 ml/min/kg and 15.6 (16.6%) ml/min/kg
  CLpd (distribution of Ala-d4T-MP to extravascular compartment): 4.7 ml/min/kg and 4.7 (44.7%) ml/min/kg
[8]; [12]
  CLm3 (metabolic clearance of Ala-d4T-MP / formation clearance of d4T): 36.1 mL/min/kg
  CLm1d (distribution of Ala-d4T-MP to the extravascular compartment): 47.1 ml/min/kg and 62.0 (69.8%) ml/min/kg
[8]; metabolite = label, after i.v. compound 113
  fraction of parent converted to the metabolite (fm): 23%
[8]; [13]
  AUC: 11648.7 µM·min
  CL: 15.8 mL/min/kg
  Cmax: 1210 µM
  Vss: 0.2755 L/kg
  t1/2: 28.5 min
[8]; [14]
  AUC: (11761.5 ± 447.2) μM · min
  CL: (15.7 ± 0.6) ml/min/kg
  Cmax: 1660 µM
  Vss: (412.6 ± 126.3) ml/kg
  t1/2: (91.5 ± 54.5) min
[8]; [15]
  AUC: 2854.8 µM·min
  Cmax: 67.4 µM
  Tmax: 5.9 min
  t1/2: 129.2 min
[8]; [16]
  AUC: (2795.9 ± 361.2) μM · min
  Cmax: 69.3 µM
  Tmax: (5.1 ± 0.7) min
  t1/2: (138.8 ± 40.2) min
Stability in whole blood
  stability in whole blood (in words): stable
[9]; metabolite = label, after oral administration of compound 113
  estimated bioavailability: approximately 12%
[9]; [17]
  AUC: 1350.5 µM·min
  Cmax: 12.7 µM
  Tmax: 10.3 min
  t1/2: 66.4 min
[9]; mean ± S.E.M
  AUC: (1355.4 ± 88.2) μM · min
  Cmax: 15.6 µM
  Tmax: (9.3 ± 0.9) min
  t1/2: (56.1 ± 8.5) min
[10]
  stability in intestinal fluid (in words): stable
